# Source: patent US5747452A, “Method of modulating tumor cell migration using fibronectin type III peptides” (La Jolla Cancer Research Foundation, priority 1995, dated 1998)
# Test system: C11 CHO cells
# Test: Migration assay (in vitro wounding assay)
# Assay type: cell-based, Chinese Hamster
# Details: 50 μM for 48 hours
# Experimental: Migration was tested by using Chinese Hamster Ovary (CHO) cells in an in vitro "wounding" assay as described previously (Giancotti and Ruoslahti, Cell 60,849(1990)). CHO cells are commercially available and have ATCC number CRL 9096. A3 is an overexpressor of the α5 β1 integrin created by cDNA transfection as described in the article cited above. C11 is a control-transfected line expressing only the endogenous CHO α5 β1. As described in Example XIV below, cells were grown in the absence or presence of 50 μM III1 -C for 48 hours, then the culture was "wounded" by removing cells from the plastic dish by scraping the dish with a plastic pipette tip. The migration of the cells into the "wound" path was monitored by photography at various times.
# It is known from previous work (see Giancotti and Ruoslahti, (1990), supra) that there is a correlation between an increase in fibronectin matrix assembly and the decrease in tumorigenic phenotype. Since the polypeptides of the present invention including the recombinant polypeptides are able to modulate fibronectin matrix assembly, these proteins were tested to determine if they could modulate the tumorigenic phenotype of cells. […] As a comparison, A3 CHO cells, which do overexpress α5 β1, fibronectin receptors and are less tumorigenic, were grown in parallel. […]
substance,measurement,value
"III1 -C: Sequence ID No. 11; recombinant protein, residues 600-674 of human fibronectin, from pGEX-2T",effect on cell migration,retardation of their migration
